19 molecules from PubChem BioAssay (NCI) can be followed below.

Common to all, as to assay: growth of human tumour cells (NCI), 48 h
In experiment [1] the test system is CAKI-1 renal.
Experiment [2] has as its system KM12 colon.
The subject of experiment [3] is A549 NSCLC.
The test system of experiment [4] is MCF7 breast.
For experiment [5], the system named is NCI-H226 lung.
In experiment [6] the test system is MDA-MB-231 breast.
Experiment [7] has as its system SNB-19 CNS.
Experiment [8] deals with K-562 leukemia.
Experiment [9] has as its system NCI-H460 lung.
Experiment [10] has as its system HCT-15 colon.

Where “and” joins values, the source holds several entries; their conditions need not be identical. Equal values may be shown once.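 Following 48 hours of exposure in 96-well plates, responses at five concentrations were used to interpolate endpoints linearly. Abbreviation: GI50, concentration required for 50% inhibition of growth. Definition used: TGI = concentration required for complete inhibition of growth.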

For the molecule `Cc1cc2c(C(C)C)c(O)c(O)c(C=Nc3cc(C(F)(F)F)ccc3Cl)c2c(O)c1-c1c(C)cc2c(C(C)C)c(O)c(O)c(C=Nc3cc(C(F)(F)F)ccc3Cl)c2c1O`, the TGI was greater than 100 µM in experiment [1]; 92.4 µM in [2]; greater than 100 µM in experiment [3]; 71.4 µM in experiment [4]; 95.4 µM in experiment [5]; greater than 100 µM in experiment [6]. Besides, the TGI in experiment [7], in experiment [8], in [9] and in experiment [10] was greater than 100 µM in each case.

With `COc1ccc(C2SC(N)=Nc3c2c(C)nn3C(=O)c2ccc(Cl)cc2)cc1OC` (configuration not stated), the TGI in [1], in [2], in [3], in experiment [4], in experiment [5] and in [6] was greater than 10 µM throughout. The TGI in experiment [7], in [8], in experiment [9] and in experiment [10] was greater than 10 µM in each case.

Consider `Fc1cccc(COc2ccc(Nc3ncnc4sc(-c5ccco5)cc34)cc2Cl)c1`, for which the GI50 in experiment [1], in experiment [2], in [3], in [4], in experiment [5] and in experiment [6] was greater than 25 µM each time. Further, the GI50 in experiment [7], in experiment [8], in [9] and in experiment [10] was greater than 25 µM each time. In addition, the TGI in experiment [1], in experiment [2], in experiment [3], in experiment [4], in [5] and in [6] was greater than 25 µM throughout. For the same molecule, the TGI in experiment [7], in experiment [8], in [9] and in experiment [10] was greater than 25 µM in each case.

Turning to `Nc1c(C(=O)Nc2ccc([As](=O)(O)O)cc2)cnc2nnnn12`, the TGI in [1], in experiment [2], in [3], in experiment [4], in experiment [5] and in [6] was greater than 100 µM throughout. The TGI in experiment [7], in experiment [8], in experiment [9] and in experiment [10] was greater than 100 µM in each case.

In the case of `Cc1cc2c(cc1C)NC1=C(N2)OC(c2c[nH]c3ccc(COc4ccccc4)cc23)C1=O` (configuration not stated), the TGI was greater than 100 µM in [1]; greater than 100 µM in experiment [2]; greater than 100 µM in experiment [3]; greater than 100 µM in experiment [4]; greater than 100 µM in experiment [5]; 67.1 µM in [6]. In addition, the TGI in [7], in experiment [8], in [9] and in experiment [10] was greater than 100 µM each time.

In the case of `COc1ccc(-c2cc(-c3ccc(Cl)cc3)c(C#N)c(=O)n2CCCCC(=O)Nc2ccccc2N)cc1`, the GI50 in experiment [1] was 2.52 µM; in [2], 5.17 µM; in [3], 4.94 µM; in experiment [4] it was 4.03 µM; in [5], 6.26 µM; in experiment [6], 7.86 µM. In addition, the GI50 in [7] is 22.2 µM; in experiment [8], 4.18 µM; in experiment [9], 4.26 µM; in [10] it was 3.03 µM. Moreover, the TGI in [1] is 20.2 µM; in [2] it was greater than 100 µM; in [3], greater than 100 µM; in experiment [4] it was greater than 100 µM; in experiment [5], 70.9 µM; in experiment [6], greater than 100 µM. In addition, the TGI in [7] was greater than 100 µM; in [8], greater than 100 µM; in experiment [9], 56.6 µM; in experiment [10] it was 13 µM.

As to `Nc1cc2c3c(cccc3c1)NC2=O`, the TGI in [1], in experiment [2], in experiment [3], in experiment [4], in experiment [5] and in experiment [6] was greater than 100 µM each time. Further, the TGI in experiment [7], in experiment [8], in experiment [9] and in experiment [10] was greater than 100 µM each time.

On to `CC(C)c1ccc2nc3ccc(C(=O)NCCN(C)C)cn3c(=O)c2c1`, for which the TGI was determined as 45 µM in [1]; 33 µM in [2]; 34.7 µM in experiment [3]; 30.8 µM in [4]; 37.1 µM in experiment [5]; 34.6 µM in [6]. The TGI in experiment [7] was greater than 100 µM; in experiment [8] it was 9.46 µM; in experiment [9], 33.7 µM; in experiment [10] it was 28.5 µM.

Take `CCN(c1ccc(CO)c(Cl)c1)C(C)c1ccc(F)cc1` (configuration not stated): the GI50 in experiment [1] was 8.46 µM; in [2], 17 µM; in experiment [3] it was 13.1 µM; in experiment [4], 12.5 µM; in experiment [5], 0.49 µM; in [6], 15.3 µM. For the same molecule, the GI50 is 16 µM in experiment [7], 9.86 µM in experiment [8], 7.88 µM in [9] and 13.7 µM in [10]. The TGI in experiment [1] is 21.7 µM; in experiment [2], 32.5 µM; in experiment [3] it was 27.9 µM; in experiment [4], 27.1 µM; in [5] it was 2.31 µM; in [6], 30.1 µM. Besides, the TGI in experiment [7] is 30.5 µM; in experiment [8] it was 24.7 µM; in experiment [9], 23.7 µM; in [10], 28.9 µM.

For the molecule `C#C[C@]1(O)CC[C@H]2[C@@H]3CC=C4c5nc(Nc6ccccn6)sc5CC[C@]4(C)[C@H]3CC[C@@]21C`, the GI50 in experiment [1] was 1.26 µM; in [2], 1.7 µM; in [3], 1.94 µM; in experiment [4], 0.968 µM; in experiment [5], 1.51 µM; in [6] it was 1 µM. Moreover, the GI50 in experiment [7] was 1.37 µM; in experiment [8], 0.348 µM; in [9] it was 1.21 µM; in experiment [10], 1.27 µM. The TGI in [1] came out at 3.1 µM; in experiment [2], 4.5 µM; in [3], 11.1 µM; in experiment [4], 3.73 µM; in experiment [5], 3.91 µM; in [6], 3.11 µM. The TGI in experiment [7] worked out at 5.59 µM; in experiment [8], 2.13 µM; in experiment [9] it was 2.83 µM; in experiment [10] it was 2.94 µM.

With `COC(=O)c1ccc2c(c1)C(NC(C)=O)CCc1cc(OC)c(OC)c(OC)c1-2` (configuration not stated), the TGI is 77.4 µM in [1]; 0.219 µM in experiment [2]; greater than 100 µM in experiment [3]; greater than 100 µM in experiment [4]; 1.17 µM in experiment [5]; greater than 100 µM in experiment [6]. Further, the TGI is greater than 86.9 µM in [7], 28.1 µM in experiment [8], 3.23 µM in experiment [9] and greater than 44.3 µM in experiment [10].

For `CSc1ccc(/C=C2\CNC/C(=C\c3ccc(SC)cc3)C2=O)cc1`, the GI50 in experiment [1] is 90.3 µg/mL; in experiment [2], 150 µg/mL; in experiment [3] it was 150 µg/mL; in experiment [4], > 371 µM and 58.8 µg/mL; in experiment [5], 99.7 µg/mL; in experiment [7], 50.9 µM and 23.9 µg/mL. Besides, the GI50 in experiment [8] was 150 µg/mL; in experiment [9] it was 114 µg/mL; in experiment [10], 112 µg/mL. The TGI is 150 µg/mL in [1]; > 371 µM and 150 µg/mL in experiment [2]; > 371 µM and 150 µg/mL in experiment [3]; > 371 µM and 150 µg/mL in [4]; 104 µM and 150 µg/mL in experiment [5]; 362 µM in experiment [6]. The TGI was > 127 µM and 89.4 µg/mL in experiment [7]; > 371 µM and 150 µg/mL in experiment [8]; > 371 µM and 150 µg/mL in experiment [9]; > 371 µM and 150 µg/mL in [10].

In the case of `COc1ccc2nc(-c3ccccc3)cc(Nc3cccc(/C(C)=N\O)c3)c2c1`, the GI50 in experiment [1] is 3.23 µM; in experiment [3], 4.67 µM; in [4] it was 16.8 µM; in experiment [5] it was 3.18 µM; in experiment [6], 2.54 µM; in experiment [7], 32.9 µM. In addition, the GI50 is 4.12 µM in experiment [8], 6.84 µM in [9] and 29.8 µM in [10]. Besides, the TGI is 12.9 µM in [1]; greater than 100 µM in experiment [3]; greater than 100 µM in experiment [4]; 11.1 µM in experiment [5]; 7.62 µM in experiment [6]; greater than 100 µM in experiment [7]. For the same molecule, the TGI in [8], in experiment [9] and in experiment [10] was greater than 100 µM in each case.

As for `C/C(=N\O)c1ccc(Nc2cc(-n3nnc4ccccc43)nc3ccccc23)cc1`, the GI50 in experiment [1] was 4.26 µM; in experiment [2], 2.98 µM; in [3], 8.42 µM; in [4], 5.24 µM; in [5], 7.88 µM; in experiment [6] it was 2.53 µM. The GI50 in [7] was 19.9 µM; in experiment [8], 5.32 µM; in experiment [9], 4.08 µM; in experiment [10], 4.17 µM. The TGI in experiment [1] was 13.7 µM; in [2] it was 10.9 µM; in experiment [3], greater than 41.3 µM; in experiment [4], 14.4 µM; in experiment [5], 30.3 µM; in experiment [6], 9.37 µM. Moreover, the TGI in [7] is greater than 90.7 µM; in experiment [8], greater than 100 µM; in experiment [9], greater than 25.4 µM; in [10], 20.9 µM.

Turning to `CC1(C)CCC(C)(C)c2cc(C(=O)Nc3ccc(C(=O)O)cc3)ccc21`, the TGI in [1] is 37.2 µM; in [2], greater than 61.4 µM; in experiment [3], greater than 75.1 µM; in experiment [4], greater than 100 µM; in [5], greater than 65.5 µM; in experiment [6], greater than 95.2 µM. The TGI in experiment [7] is greater than 66.4 µM; in [8], greater than 100 µM; in experiment [9], 46.9 µM; in experiment [10], 63 µM.

Consider `CC1(C)O[C@H]2OC3CCC(=O)CC3(O)[C@H]2O1` (some centres not stated), for which the TGI in [1], in experiment [2], in [3], in [4], in experiment [5] and in experiment [6] was greater than 100 µM throughout. The TGI in [7], in [8], in experiment [9] and in [10] was greater than 100 µM in each case.

Take `COc1cc(/C=C2\CN(C)CC3=C2Nc2nc(SC)[nH]c(=O)c2C3c2cc(OC)c(OC)c(OC)c2)cc(OC)c1OC` (configuration not stated): the GI50 in [1] is 2.15 µM; in [2], 1.7 µM; in [3] it was 3.26 µM; in [4], 4.98 µM; in experiment [5], 6.17 µM; in experiment [6], 3.14 µM. The values for the GI50 in experiment [7], in [9] and in experiment [10] were 8.65 µM, 2.3 µM and 2.07 µM, respectively. Also, the TGI in [1] was 4.71 µM; in experiment [2], 3.21 µM; in experiment [3], 13.7 µM; in experiment [4] it was 18.3 µM; in experiment [5], 22.2 µM; in [6] it was 13.1 µM. For the same molecule, the TGI came to 21.9 µM in [7], 5.4 µM in experiment [9] and 4.79 µM in [10].

Turning to `CC(=O)c1cccc(N(/C=C/C(=O)C(F)(F)F)CC(=O)c2ccc(Cl)cc2)c1`, the GI50 in experiment [1], in [2], in [3], in [4], in experiment [5] and in [6] was greater than 100 µM each time. Besides, the GI50 in experiment [8], in [9] and in experiment [10] was greater than 100 µM in each case. The TGI in experiment [1], in experiment [2], in experiment [3], in [4], in experiment [5] and in experiment [6] was greater than 100 µM throughout. In addition, the TGI in [8], in [9] and in experiment [10] was greater than 100 µM throughout.

For the molecule `O=c1oc2ccccc2c(O)c1C=NC(=S)c1ccncc1`, the TGI in experiment [1], in experiment [2], in [3], in [4], in experiment [5] and in experiment [6] was greater than 100 µM in each case. Besides, the TGI in experiment [7], in experiment [9] and in experiment [10] was greater than 100 µM throughout.
